Assay results: patent US20030086902A1, “Cytokine-like peptide” (priority 1999, published 2003)

Assays:
Format in all cases: cell-based
[1] = tested on: vesicular stomatitis viruses (VSV); settings: human amnion-derived FL cells
sindbis viruses [2] = assay: antiviral bioassay using FL cells and sindbis viruses
Method: The antiviral activity of the resultant synthetic peptides was inspected by a bioassay method using human amnion-derived FL cells and sindbis viruses (Armstrong, J. A., Methods in Enzymology, 78, 381-387 (1981)). FL cells were inoculated on wells of a 96-well microtiter plate (IWAKI GLASS CO., LTD.) at 3.5×10^5 cells/well and cultured for 24 hours. Thereafter, each peptide was added at the concentration shown in FIG. 3 (0.9 μM to 120 μM) and cultured for 24 hours. […] Thereafter, sindbis viruses were added to each well and cultured for 15 hours. The culture solution was discarded, the plate was immersed in a crystal violet solution containing formalin for about 15 minutes, and living cells were immobilized and stained.
In order to identify an amino acid residue that plays an important role in expressing the antiviral activity of peptide SYR6, 12 types of varied peptides were prepared through chemical synthesis in which each of all the amino acid residues other than alanine of SYR6 were respectively substituted with alanine (peptides were successively designated as N1 to N15 in order from the N-terminus side in accordance with the number of the amino acid residue converted into alanine. Since the fourth, eighth, and ninth residues are alanine, excluding these, a total of 12 types of peptides was prepared). The sequences are shown in the lower part of FIG. 7. […]

sindbis viruses [3] = assay: antiviral activity in the presence of interferon neutralizing antibodies (FL cells, sindbis viruses); settings: MIF-1 (anti-IFN α), YSB-1 (anti-IFN β), anti-IFN γ antibodies added
Method: In order to deny the possibility that the antiviral activity of peptide SYR6 is attained by inducing endogenous production of interferon, the antiviral activity in the presence of various interferon neutralizing antibodies was examined. FL cells were inoculated on wells of a 96-well microtiter plate (IWAKI GLASS CO., LTD.) at 3.5×10^5 cells/well and cultured for 24 hours. Thereafter, peptide SYR6 was added at the concentration shown in FIG. 5 (0.9 μM to 120 μM) and cultured for 24 hours. […] Thereafter, sindbis viruses were added to each well and cultured for 15 hours. In this case also, various neutralizing antibodies were added and cultured under the same conditions as described above. The culture solution was discarded, the plate was immersed in a crystal violet solution containing formalin for about 15 minutes, and living cells were immobilized and stained. […] Therefore, the possibility that the antiviral activity of peptide SYR6 was attained by inducing the production of endogenous interferon was denied.

Substance: SYR6: synthetic 15-residue peptide with the sequence of phage 6, SEQ ID NO: 1 (SVQARWEAAFDLDLY; Designed peptide based on the DNA sequence of phage binding to monoclonal antibody YSB-2)
- concentration at which the peptide began to exhibit antiviral activity [1]: 30 µM
- antiviral activity of the synthetic peptides (FIG. 3) (sindbis viruses [2]; FL cells, SYR6 HPLC peaks measured separately): activity was recognized
- concentration at which the peptide began to exhibit antiviral activity (sindbis viruses [2]; human amnion-derived FL cells, peptide 0.9 μM to 120 μM for 24 hours): 30 µM
- antiviral activity in the presence of interferon neutralizing antibodies (sindbis viruses [3]): not affected at all
